# Reference: patent publication US11649460B2, “DNA aptamers, method for inhibiting human galectin-1 and method of treating a mammal in need thereof” (priority 2020, dated 2023)
# Like-named read-outs stand apart in the source and are kept apart here.
# Tests used:
# [1] = molecular target: T1, hGal1-induced hemagglutination of red blood cells (Homo sapiens, UniProt P09382); test: Hemagglutination inhibition assay, native hGal1; type: cell-based; details: native Gal1 5 μM
# T1 construct: 42; made in house; host or cells: E. coli strain M-15
# T1 sequence (P09382 2-135): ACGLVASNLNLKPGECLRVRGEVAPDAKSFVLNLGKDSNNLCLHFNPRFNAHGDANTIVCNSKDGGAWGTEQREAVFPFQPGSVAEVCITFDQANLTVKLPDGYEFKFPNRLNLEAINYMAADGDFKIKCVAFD
# Experimental: Hemagglutination Inhibition Assay
# Hemagglutination assay was adopted to assess the capacity of SEQ ID NO.: 4 in inhibiting the lectin cross-linking aggregation of red blood cells (RBC), as previously described. Briefly, using a 96-well microplates appropriate amounts of 5 μM hGal1 were blended with 50 μL of aptamer in an increasing concentrations manner (0-40 μM) in PBS 1× buffer (pH 7.4). Following, 50 μL of 3% purified type B+ RBC in PBS. After 2 h of room temperature incubation, the plate was photographed and the hemagglutination area was estimated by area calculator Sketchandcalc™ and the results were expressed as relative agglutination.
# [2] = test system: DU-145 human prostate carcinoma cell line; test: SRB cell proliferation (cytotoxicity) assay, DU-145; details: for Relative cell viability (%): human
# Excerpt: (§1) The XLSTAT software was used to determine the IC50, TGI and LC50 values using the four-parameter logistic curve equation.
# [3] = test system: HT-29 human colorectal adenocarcinoma; test: SRB cell proliferation (cytotoxicity) assay, HT-29
# Excerpt: as §1
# [4] = test system: A-375 human malignant melanoma; test: SRB cell proliferation (cytotoxicity) assay, A-375
# Excerpt: as §1
# [5] = test system: SK-BR-3 human breast adenocarcinoma; test: SRB cell proliferation (cytotoxicity) assay, SK-BR-3
# Excerpt: as §1
# in vitro = details: human
# Excerpt: as §1
# [6] = test system: NHF human foreskin skin fibroblasts; test: SRB cell proliferation (cytotoxicity) assay, NHF; details: for IC50: read-out: IC50: Concentration to inhibit 50% of cell growth
# Excerpt: as §1
# [7] = test system: OVCAR-3 human ovarian adenocarcinoma cell line; test: SRB cell proliferation (cytotoxicity) assay, OVCAR-3; details: for Relative cell viability (%): human
# Excerpt: as §1
# [8] = test system: MCF-7 human breast adenocarcinoma cell line; test: SRB cell proliferation (cytotoxicity) assay, MCF-7
# Excerpt: as §1
# [9] = test system: HCT 116 human colorectal carcinoma; test: SRB cell proliferation (cytotoxicity) assay, HCT 116
# Excerpt: as §1
# OVCAR-3 cell line = test: Synergism test with cisplatin, OVCAR-3; details: cisplatin 3 μM
# Excerpt: For the analysis of cell proliferation, the non-clonogenic method of sulforodamine B (SRB) was used, a protein dye that binds to the basic amino acid residues of cell proteins that were viable at the time of the fixation process. Therefore, the greater the amount of SRB bound per compartment, the less the antiproliferative activity of the item under study.
# [10] = molecular target: T2, native human galectin-1 (hGal1) (Homo sapiens, UniProt P09382); test: Thermofluor thermal shift assay (TSA), native galectin-1; type: binding; details: 5 μM protein
# T2 construct: 42; made in house; host or cells: E. coli strain M-15
# T2 sequence (P09382 2-135): as above
# Experimental: In an attempt to screen among the selected aptamers that better interact with hGal1, differential scanning fluorimetry (Termofluor) was used to characterize their binding to its target. Among all the selected aptamers, SEQ ID NO.: 4 seemed to have a more intense effect on hGal1 thermoshift and so was chosen for further analysis. The selected aptamer had its interaction evaluated with native and alkylated galectin-1. […] The respective thermal displacements were evaluated as a function of an increasing concentration of SEQ ID NO.: 4 (FIG. 1).
# Thermofluor experiments were performed on an Mx3005 RT-PCR (Agilent Technologies) using the SYPRO® Orange dye (492/610 nm) (Invitrogen) as fluorescent probe. The purified (native and alkylated) protein samples were incubated for 30 min with increasing concentration of the molecules of interest, centrifuged, and submitted to the thermal denaturation assay, totalizing four distinct experiments. In a 96-well plate (Agilent Technologies) 20 μl of the reaction containing 5 μM of each protein in buffer PBS 1× and 5× SYPRO® Orange were heated from 25° C. to 95° C. at a rate of 1° C./min. The experimental result was processed as in the protocol previously described and the melting temperature was obtained using GraphPad Prism software (www.graphpad.com).
# [11] = Homo sapiens, DU-145, read-out: Relative cell viability (%)
# [12] = Homo sapiens, HT-29, read-out: Relative cell viability (%)
# [13] = Homo sapiens, A-375, read-out: Relative cell viability (%)
# [14] = Homo sapiens, SK-BR-3, read-out: Relative cell viability (%)
# [15] = Homo sapiens, OVCAR-3, read-out: Relative cell viability (%)
# [16] = Homo sapiens, MCF7, read-out: Relative cell viability (%)
# [17] = Homo sapiens, HCT-116, read-out: Relative cell viability (%)
# [18] = read-out: IC50: Concentration to inhibit 50% of cell growth, DU-145
# [19] = read-out: IC50: Concentration to inhibit 50% of cell growth, HT-29
# [20] = read-out: IC50: Concentration to inhibit 50% of cell growth, SK-BR-3
molecule,measurement,setting,value
"OC[C@H]1O[C@@H](O[C@H]2[C@H](O)[C@@H](O)C(O)O[C@@H]2CO)[C@H](O)[C@@H](O)[C@H]1O (some centres unmarked) [Lactose, reference compound]",inhibitory effect on galectin-induced hemagglutination,[1],inhibited hemagglutinating activity
"CC(=O)O[C@H]1C(=O)[C@@]2(C)[C@H]([C@H](OC(=O)c3ccccc3)[C@]3(O)C[C@H](OC(=O)[C@H](O)[C@@H](NC(=O)c4ccccc4)c4ccccc4)C(C)=C1C3(C)C)[C@]1(OC(C)=O)CO[C@@H]1C[C@@H]2O [Paclitaxel, reference compound]",TGI: Concentration for total inhibition of cell growth,[2]; DU-145,0.013021 µM
same,IC50,"[2]; Homo sapiens, DU-145, read-out: IC50: Concentration to inhibit 50% of cell growth",0.0072 µM
same,viability at 0.000781 µM,[2]; [11],104%
same,viability at 0.001562 µM,[2]; [11],95.5%
same,viability at 0.003125 µM,[2]; [11],97.3%
same,viability at 0.00625 µM,[2]; [11],58.9%
same,viability at 0.0125 µM,[2]; [11],8.4%
same,Relative cell viability (%),[2]; 0.05 µM,−15.7%
same,Relative cell viability (%),[2]; 0.1 µM,−25.6%
same,IC50,"[3]; Homo sapiens, HT-29, read-out: IC50: Concentration to inhibit 50% of cell growth",0.00631 µM
same,viability at 0.000781 µM,[3]; [12],102%
same,viability at 0.001562 µM,[3]; [12],99.1%
same,viability at 0.003125 µM,[3]; [12],80.8%
same,viability at 0.00625 µM,[3]; [12],48.8%
same,viability at 0.0125 µM,[3]; [12],24.5%
same,viability at 0.05 µM,[3]; [12],6.7%
same,viability at 0.1 µM,[3]; [12],5%
same,viability at 0.000781 µM,[4]; [13],117%
same,viability at 0.001562 µM,[4]; [13],96.3%
same,viability at 0.003125 µM,[4]; [13],99.4%
same,viability at 0.00625 µM,[4]; [13],98.8%
same,viability at 0.0125 µM,[4]; [13],113%
same,viability at 0.05 µM,[4]; [13],91.2%
same,viability at 0.1 µM,[4]; [13],69%
same,IC50,"[5]; Homo sapiens, SK-BR-3, read-out: IC50: Concentration to inhibit 50% of cell growth",0.0148 µM
same,viability at 0.000781 µM,[5]; [14],113%
same,viability at 0.001562 µM,[5]; [14],113%
same,viability at 0.003125 µM,[5]; [14],119%
same,viability at 0.00625 µM,[5]; [14],106%
same,viability at 0.0125 µM,[5]; [14],68.3%
same,viability at 0.05 µM,[5]; [14],12.3%
same,viability at 0.1 µM,[5]; [14],13.9%
same,CC50,in vitro,> 0.1 µM
same,viability at 0.000781 µM,in vitro,86.6%
same,viability at 0.001562 µM,in vitro,79.7%
same,viability at 0.003125 µM,in vitro,72.1%
same,viability at 0.00625 µM,in vitro,61.9%
same,viability at 0.0125 µM,in vitro,58.6%
same,viability at 0.05 µM,in vitro,28.7%
same,viability at 0.1 µM,in vitro,16.9%
same,IC50,"[6]; Homo sapiens, Skin fibroblast",0.0187 µM
same,TGI: Concentration for total inhibition of cell growth,[6]; NHF,>0.1 µM
same,IC50,"[7]; Homo sapiens, OVCAR-3, read-out: IC50: Concentration to inhibit 50% of cell growth",0.01 µM
same,CC50,"[7]; Homo sapiens, OVCAR-3, read-out: LC50: Concentration for 50% cell death",0.0351 µM
same,viability at 0.000781 µM,[7]; [15],96.9%
same,viability at 0.001562 µM,[7]; [15],90.1%
same,viability at 0.003125 µM,[7]; [15],89.6%
same,viability at 0.00625 µM,[7]; [15],69.6%
same,viability at 0.0125 µM,[7]; [15],31.1%
same,TGI: Concentration for total inhibition of cell growth,[7]; OVCAR-3,0.015402 µM
same,Relative cell viability (%),[7]; 0.05 µM,−45.1%
same,Relative cell viability (%),[7]; 0.1 µM,−57.5%
same,IC50,"[8]; Homo sapiens, MCF7, read-out: IC50: Concentration to inhibit 50% of cell growth",0.00282 µM
same,viability at 0.000781 µM,[8]; [16],87.9%
same,viability at 0.001562 µM,[8]; [16],65.5%
same,viability at 0.003125 µM,[8]; [16],47.6%
same,viability at 0.00625 µM,[8]; [16],36.9%
same,viability at 0.0125 µM,[8]; [16],29.3%
same,viability at 0.05 µM,[8]; [16],23.6%
same,viability at 0.1 µM,[8]; [16],24.7%
same,IC50,"[9]; Homo sapiens, HCT-116, read-out: IC50: Concentration to inhibit 50% of cell growth",0.00646 µM
same,viability at 0.000781 µM,[9]; [17],96.2%
same,viability at 0.001562 µM,[9]; [17],96.6%
same,viability at 0.003125 µM,[9]; [17],90.9%
same,viability at 0.00625 µM,[9]; [17],50.6%
same,viability at 0.0125 µM,[9]; [17],17.5%
same,viability at 0.05 µM,[9]; [17],3.4%
same,viability at 0.1 µM,[9]; [17],4.7%
"N.N.[Cl][Pt][Cl] [Cisplatin, reference compound]",TGI: Concentration for total inhibition of cell growth,[2]; DU-145,<3.906 µM
same,IC50,[2]; [18],< 3.91 µM
same,TGI: Concentration for total inhibition of cell growth,[3]; HT-29,64.977 µM
same,IC50,[3]; [19],< 3.91 µM
same,TGI: Concentration for total inhibition of cell growth,[4]; A-375,7.96 µM
same,TGI: Concentration for total inhibition of cell growth,[5]; SK-BR-3,4.491 µM
same,IC50,[5]; [20],< 3.91 µM
same,TGI: Concentration for total inhibition of cell growth,[6]; NHF,16.139 µM
same,IC50,[6]; NHF,4.77 µM
same,TGI: Concentration for total inhibition of cell growth,[8]; MCF-7,35.869 µM
same,TGI: Concentration for total inhibition of cell growth,[9]; HCT 116,15.550 µM
"AGCTGACACAGCAGGTTGGTGCGCCCAATACAGGCGCAGTATCTGTCCGTGGGCCGGGTAAAAGTTACGGACCGAGTCGAGCAATCTCGAAAT (nucleic acid, chemistry not given here) DNA: AGCTGACACAGCAGGTTGGTGCGCCCAATACAGGCGCAGTATCTGTCCGTGGGCCGGGTAAAAGTTACGGACCGAGTCGAGCAATCTCGAAAT",effect on the profile of antiproliferative activity in association with cisplatin,OVCAR-3 cell line,enhances
same,TGI: Concentration for total inhibition of cell growth,[2]; DU-145,42.423 µM
same,IC50,[2]; [18],23.4 µM
same,CC50,"[2]; read-out: LC50: Concentration for 50% cell death, DU-145",83.5 µM
same,TGI: Concentration for total inhibition of cell growth,[3]; HT-29,30.010 µM
same,IC50,[3]; [19],14.6 µM
same,CC50,"[3]; read-out: LC50: Concentration for 50% cell death, HT-29",60.3 µM
same,TGI: Concentration for total inhibition of cell growth,[4]; A-375,36.326 µM
same,IC50,"[4]; read-out: IC50: Concentration to inhibit 50% of cell growth, A-375",26.3 µM
same,CC50,"[4]; read-out: LC50: Concentration for 50% cell death, A-375",51.5 µM
same,TGI: Concentration for total inhibition of cell growth,[5]; SK-BR-3,37.529 µM
same,IC50,[5]; [20],24.3 µM
same,CC50,"[5]; read-out: LC50: Concentration for 50% cell death, SK-BR-3",60.2 µM
same,TGI: Concentration for total inhibition of cell growth,[6]; NHF,53.452 µM
same,IC50,[6]; NHF,33.7 µM
same,CC50,"[6]; read-out: LC50: Concentration for 50% cell death, NHF",93.6 µM
same,TGI: Concentration for total inhibition of cell growth,[7]; OVCAR-3,37.711 µM
same,IC50,"[7]; read-out: IC50: Concentration to inhibit 50% of cell growth, OVCAR-3",11.1 µM
same,CC50,"[7]; read-out: LC50: Concentration for 50% cell death, OVCAR-3",87.8 µM
same,inhibitory effect on galectin-induced hemagglutination,[1],better effect
same,TGI: Concentration for total inhibition of cell growth,[8]; MCF-7,48.434 µM
same,IC50,"[8]; read-out: IC50: Concentration to inhibit 50% of cell growth, MCF-7",17.8 µM
same,CC50,"[8]; read-out: LC50: Concentration for 50% cell death, MCF-7",84.1 µM
same,TGI: Concentration for total inhibition of cell growth,[9]; HCT 116,41.730 µM
same,IC50,"[9]; read-out: IC50: Concentration to inhibit 50% of cell growth, HCT 116",16 µM
same,CC50,"[9]; read-out: LC50: Concentration for 50% cell death, HCT 116",96.3 µM
same,variation of denaturation temperature (Tm) of native hGal1,[10],greater variation
